For the assay, the system named is endometrial adenocarcinoma Ishikawa cells. Description: Cell viability MTT assay, Ishikawa. To be noted: Homo sapiens. It counts as cell-based, human. (Tetrazolium dyes change colour on reduction, which living cells bring about.)

Structures are written as SMILES. Like-named read-outs stand apart in the source and are kept apart here.

For `COc1ccc(-c2oc3cc(O)c(OC)c(O)c3c(=O)c2OC)cc1` [santin, 5,7-dihydroxy-3,6,4′-trimethoxyflavone], the IC50 (24 h, read-out: IC50 values ± SD in MTT assay) was found to be 12.9 ± 1.1 µM; the IC50 (48 h, negative control siRNA transfected cells, 48 h, read-out: IC50, MTT assay) was found to be 5.9 ± 0.9 µM; the 50% inhibitory concentration (IC50) (48 h, non-transfected cells, 48 h, read-out: IC50, MTT assay) stood at 5.7 ± 0.8 µM; the IC50 (48 h, p53-silenced cells, 48 h, read-out: IC50, MTT assay) came to 5.9 ± 1.1 µM; the IC50 (48 h, prolidase-silenced cells, 48 h, read-out: IC50, MTT assay) stood at 11.1 ± 1.9 µM; the IC50 (48 h, proline oxidase-silenced cells, 48 h, read-out: IC50, MTT assay) came out at 14 ± 2 µM. In addition, the IC50 (48 h, read-out: IC50 values ± SD in MTT assay) stood at 5.1 ± 0.9 µM.

By IC50 is commonly meant the concentration that gives 50% inhibition.

(Values after publication PMC10512030, “Prolidase-proline oxidase axis is engaged in apoptosis induction by birch buds flavonol santin in endometrial adenocarcinoma cell line” (Frontiers in Molecular Biosciences, 2023).)
